The target of experiment [1] is T1, Heat shock factor protein 1 (Mus musculus, UniProt P38532).
T1 sequence (P38532 whole entry): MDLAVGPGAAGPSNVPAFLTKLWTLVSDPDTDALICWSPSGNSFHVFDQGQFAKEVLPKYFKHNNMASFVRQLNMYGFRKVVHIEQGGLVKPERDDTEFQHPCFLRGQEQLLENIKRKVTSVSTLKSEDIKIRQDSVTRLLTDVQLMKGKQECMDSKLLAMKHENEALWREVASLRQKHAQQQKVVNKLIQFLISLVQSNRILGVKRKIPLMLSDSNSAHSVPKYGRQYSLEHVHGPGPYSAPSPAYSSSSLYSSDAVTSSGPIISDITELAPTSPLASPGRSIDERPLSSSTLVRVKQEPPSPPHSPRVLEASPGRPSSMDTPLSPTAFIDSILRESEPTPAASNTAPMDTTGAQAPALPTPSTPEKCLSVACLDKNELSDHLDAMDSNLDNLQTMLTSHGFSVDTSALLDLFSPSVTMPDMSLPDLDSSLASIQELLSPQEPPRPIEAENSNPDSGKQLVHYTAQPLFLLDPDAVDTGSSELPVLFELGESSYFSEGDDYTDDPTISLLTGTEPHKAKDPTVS
Briefly: decrease of HSF1-responsive luciferase luminescence – cell-based, NIH3T3, dose retest, confirmation (AID 2382).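 Also: NIH3T3 fibroblasts with HSF1-driven luciferase reporter stressed by proteasome inhibitor MG132; luminescence from HSF1-driven luciferase expression after 8 hours of MG132 stress.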 In kind it is functional.

Experiment [2] is described as follows: Luminescence Cell-Based Dose Confirmation HTS to Identify Activators of 5'UTR Stem-Loop Driven Alpha-Synuclein mRNA Translation in H4 Neuroglioblastoma Cells. [Related pubchem assays: 1829 (Project Summary), 1814 (Primary HTS)]. The class given is functional.
Experiment [3] is described as follows: Luminescence Cell-Based Dose Response HTS to Identify Activators of Luciferase Translation or Activity in H4 […] Cells. [Related pubchem assays: 1829 (Project Summary), 1814 (Primary HTS)]. The class given is functional.
The subject of experiment [4] is H4. Put plainly: Luminescence Cell-Based Dose Response HTS to Identify Activators of 5'UTR Stem-Loop Driven Prion Protein mRNA Translation in H4 Neuroglioblastoma Cells. [Related pubchem assays: 1829 (Project Summary), 1814 (Primary HTS)]. In kind it is functional. The conditions noted are these: Homo sapiens.
The nature of experiment [5]: Luminescence Cell-Based Dose Response HTS to Identify Inhibitors of 5'UTR Stem-Loop Driven Prion Protein mRNA Translation in H4 Neuroglioblastoma Cells. [Related pubchem assays: 1827 (Project Summary), 1813 (Primary HTS)]. The class given is functional.
The nature of experiment [6]: alpha-synuclein stem-loop luciferase translation blockers – H4 neuroglioma cells, luminescence, confirmation (AID 1988). The class given is functional, cell-based.
Experiment [7] is described as follows: luciferase reporter signal suppression in cells – H4 neuroglioma cells, luminescence, dose response (AID 1990). In kind it is functional, cell-based. (In general: Reporter assays use an easily measured gene product as a stand-in for the process of interest.)
In experiment [8] the target is T2, Corticotropin-releasing factor receptor 2/Corticotropin-releasing factor-binding protein (Homo sapiens, UniProt P24387+Q13324).
T2 sequence (Q13324 whole entry): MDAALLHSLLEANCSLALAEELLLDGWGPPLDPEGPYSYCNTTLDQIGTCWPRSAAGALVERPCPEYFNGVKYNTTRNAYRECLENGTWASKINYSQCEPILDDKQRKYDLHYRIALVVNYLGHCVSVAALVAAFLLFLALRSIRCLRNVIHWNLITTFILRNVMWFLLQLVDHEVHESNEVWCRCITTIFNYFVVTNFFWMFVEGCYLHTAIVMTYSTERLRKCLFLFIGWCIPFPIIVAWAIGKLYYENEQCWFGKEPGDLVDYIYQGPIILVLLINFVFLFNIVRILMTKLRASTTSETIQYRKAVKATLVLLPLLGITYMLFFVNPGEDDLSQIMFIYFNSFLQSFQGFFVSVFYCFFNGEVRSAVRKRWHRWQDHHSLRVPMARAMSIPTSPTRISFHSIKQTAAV
T2 sequence (P24387 whole entry): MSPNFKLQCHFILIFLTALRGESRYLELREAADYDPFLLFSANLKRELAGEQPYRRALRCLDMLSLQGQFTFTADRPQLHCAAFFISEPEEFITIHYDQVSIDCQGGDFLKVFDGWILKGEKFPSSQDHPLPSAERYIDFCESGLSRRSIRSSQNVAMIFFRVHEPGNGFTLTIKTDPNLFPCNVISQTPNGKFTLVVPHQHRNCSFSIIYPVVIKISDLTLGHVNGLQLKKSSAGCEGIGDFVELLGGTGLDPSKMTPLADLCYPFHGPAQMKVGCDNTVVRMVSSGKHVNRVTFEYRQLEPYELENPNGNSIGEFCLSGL
Put plainly: Dose Response confirmation of uHTS hits for small molecule antagonists of the CRF-binding protein and CRF-R2 receptor complex. Conditions: read-out: IC50_Mean. The class given is functional.

Experiment [9] addresses T2, Corticotropin-releasing factor receptor 2/Corticotropin-releasing factor-binding protein. Briefly: activators of CRF receptor 2 with binding protein – uHTS hits, confirmation (AID 602473). In kind it is functional. The conditions noted are these: read-out: EC50_Mean.

Activity calls are given as the source filed them. Rule as the data show it, for most assays here: actives have a measured EC50 and inactives only a lower limit.

As for `Cc1ccccc1NC(=O)c1ccc2c(c1)OCCO2`, the EC50 in experiment [1] was > 195 µM (not active).
For `O=C(Nc1ccc(Br)cc1)C1Cc2ccccc2O/C1=N\O` (configuration not stated), the EC50 in experiment [2] was 11.3 µM (active); in experiment [3], 7.85 µM (active); in experiment [4], 9.69 µM (active).
The corresponding values for `COc1ccc(C(=O)Cc2cnn(-c3ccccc3)c2)c(O)c1` are 0.135 µM (active), 1.58 µM (active) and > 120 µM (not active).
Take `Cc1c(Cc2ccccc2)sc(N)c1C(N)=O`: the EC50 in experiment [5] was > 120 µM (not active); in experiment [6], > 120 µM (not active); in experiment [7], 22.7 µM (active).
For the compound `C=C(C)CSc1nc2cc(Cl)c[nH]c-2n1`, the EC50 is 19 µM (active) in [2], 50.8 µM (active) in experiment [3] and 84.5 µM (active) in [4].
`COc1ccc(NC(=O)c2sc3nc(N4CCCC4)c4c(c3c2N)CC(C)(C)OC4)c(OC)c1`: the EC50 in [5] was 31.3 µM (active); in [6], 14.7 µM (active); in experiment [7], 35.2 µM (active).
In the case of `Cc1ccc2c(c1)cc1c(O)nncn12`, the EC50 in [2] is 15.6 µM (active); in experiment [3], 9.57 µM (active); in [4], 24.7 µM (active).
The corresponding values for `c1ccc(C2CSc3ccccc3N2)cc1` (configuration not stated) are 16.9 µM (active), 27.5 µM (active) and 22.5 µM (active).
Regarding `COc1ccc(-c2nc3n(n2)C(c2ccccc2)C2=C(O)CCCC2=N3)cc1OC` (configuration not stated), the EC50 in experiment [1] is recorded as > 195 µM (not active).
For the compound `O=C(NC(C(=O)c1ccccc1)n1ccc(=O)[nH]c1=O)c1ccccc1` (configuration not stated), the EC50 in experiment [2] is 7.39 µM (active); in experiment [3], 11.9 µM (active); in experiment [4], 16.4 µM (active).
For `Cc1cccc2cc(CN(Cc3ccccc3)C(S)=NCCCN(C)C)c(O)nc12`, the EC50 in experiment [1] is > 195 µM (not active).
As for `CC(=O)Nc1ccc(S(=O)(=O)N2CCC(c3nnc(-c4ccc(C)cc4)o3)CC2)cc1`, in [8], the IC50 was > 47.1 µM (inactive). Also, the EC50 in [9] is > 53 µM (inactive).
In the case of `O=C(Cc1ccccc1)N/N=C/c1ccc2c(c1)OCO2`, the EC50 in experiment [2] was 1.52 µM (active); in experiment [3], 103 µM (active); in [4], > 120 µM (not active).
In the case of `CCC(=O)Nc1cc(Cl)ccc1N1CCN(C(=O)CC)CC1`, in experiment [8], the IC50 was > 47.1 µM (inactive). In experiment [9], the EC50 was > 53 µM (inactive).
Turning to `COc1ccc(CN=C(S)Nc2ccc(-c3ccccc3)cc2)cc1`, the EC50 in [5], in experiment [6] and in [7] was > 120 µM (not active) throughout.
`CCOc1cc2c(cc1OCC)C(c1ccc(OC)cc1)N(c1ccccc1)C(=O)C2` (configuration not stated): the EC50 in experiment [1] is reported as > 195 µM (not active).
On the same count and under the same terms, in the case of `Cc1cc(C)cc(N(CC(=O)Nc2ccc(Br)cc2)S(=O)(=O)c2c(C)nc(O)nc2O)c1` it was > 195 µM (not active).
Same read-out and setting: in the case of `CCc1cc(C)cc(OCCNC(=O)c2cncc(Br)c2)c1` it was > 195 µM (not active).
With `O=C(NCc1cccs1)c1ccc(N2CCCCC2)nc1`, the EC50 was > 120 µM (not active) in experiment [2], 30.9 µM (active) in [3] and 31.5 µM (active) in [4].
For the compound `CCOC(=O)c1cccnc1NC(=O)c1ccncc1`, the EC50 in [1] is reported as > 195 µM (not active).
As to `COc1ccc(CN2C(=O)[C@@H]3Cc4c([nH]c5ccccc45)C(C)(C)N3C2=O)cc1`, the EC50 in [5], in [6] and in experiment [7] was > 120 µM (not active) each time.
As for `Cc1ccnc(N2CCCC(C(=O)NC3CC3)C2)n1` (configuration not stated), the IC50 in experiment [8] is > 47.1 µM (inactive). Moreover, in experiment [9], the EC50 was > 53 µM (inactive).
Consider `O=C(CCSc1ccccc1)N1CCN(c2ccccc2)CC1`, for which the EC50 was > 120 µM (not active) in [2], 15.5 µM (active) in experiment [3] and 28.4 µM (active) in [4].
The corresponding values for `CC(C)c1ccc(NC(S)=NC2CCCCCC2)cc1` are 0.166 µM (active), 14.3 µM (active) and 22 µM (active).
In the case of `Cc1cc(C)nc(SCCC(=O)Nc2ccccc2C)n1`, the IC50 in experiment [8] is > 47.1 µM (inactive). The EC50 in [9] was > 53 µM (inactive).
As to `Cc1ccnc(N2CCCC(C(=O)NCc3cccs3)C2)n1` (configuration not stated), in experiment [1], the EC50 was > 195 µM (not active).
As for `CN(c1ccccc1C(=O)Nc1cccc([N+](=O)[O-])c1)S(C)(=O)=O`, the EC50 in experiment [5] was 16.8 µM (active); in experiment [6] it was > 120 µM (not active); in experiment [7] it was > 120 µM (not active).
`CCOC(=O)c1cc(C#N)c(N2CCN(c3ccccn3)CC2)nc1-c1ccccc1`: the IC50 in experiment [8] was > 47.1 µM (inactive). The EC50 in experiment [9] is > 53 µM (inactive).
On to `CCCNC(=O)COc1ccc2c(=O)c(Oc3ccccc3F)coc2c1`, for which the EC50 in experiment [1] is on record as > 195 µM (not active).
The same measure, in the same setting: in the case of `CC1CCN(c2nc3ccc(C(=O)N4CCN(Cc5ccc6c(c5)OCO6)CC4)cc3s2)CC1` it was 16.5 µM (active).
The same measure, in the same setting: in the case of `C/C(=N\NS(=O)(=O)c1ccccc1)c1ccc2c(c1)OCCO2` it was > 195 µM (not active).
As for `Cc1c(C(=O)NCC2CCCO2)sc2nc(-c3ccc(F)cc3)cn12` (configuration not stated), the IC50 in experiment [8] is > 47.1 µM (inactive). Also, the EC50 in experiment [9] was > 53 µM (inactive).
The like results for `CCOC(=O)c1c(C(F)(F)C(F)(F)C(F)(F)C(F)(F)F)n[nH]c1C` were, in that order, > 47.1 µM (inactive) and > 53 µM (inactive).
The like results for `CC(=O)Nc1cc(C(=O)N2CCC3(CC2)OCCO3)ccc1S(=O)(=O)c1ccc(C)cc1` were, in that order, > 47.1 µM (inactive) and > 53 µM (inactive).
On to `COc1ccc(N=C(S)Nc2ccc(F)cc2)c(OC)c1`, for which, in experiment [1], the EC50 is > 195 µM (not active).
For the compound `CCCOc1ccc(C(=O)NC(=S)Nc2nc3ccccc3s2)cc1`, the EC50 is 20.9 µM (active) in [2], 22.5 µM (active) in [3] and 48.3 µM (active) in experiment [4].
`CCOc1ccc(NC(=O)C(C)NS(=O)(=O)c2ccc(NC(C)=O)cc2)cc1` (configuration not stated): the EC50 in experiment [1] was > 195 µM (not active).
On the same count and under the same terms, in the case of `O=S1(=O)CC/C(=N\Nc2ccc(F)cc2)c2ccsc21` it was > 195 µM (not active).
For `CCN(c1ccc(NS(=O)(=O)c2cc(Cl)ccc2Cl)cc1)C(C)C`, the IC50 in experiment [8] is > 47.1 µM (inactive). Moreover, the EC50 in experiment [9] was > 53 µM (inactive).
For `Cc1cc(C)n(C(CC(=O)O)C(=O)O)n1` (configuration not stated), the EC50 in [1] was > 195 µM (not active).
For the compound `NS(=O)(=O)c1cccc(NC(=O)CNC(=O)CC23CC4CC(CC(C4)C2)C3)c1`, the EC50 in experiment [1] is recorded as > 195 µM (not active).
On to `Oc1ccc(Br)cn1`, for which the EC50 in [5], in [6] and in experiment [7] was > 120 µM (not active) each time.
Consider `COc1ccc(CCN2C(=O)CC(Cc3ccccc3)C2=O)cc1OC` (configuration not stated), for which the IC50 in experiment [8] is > 47.1 µM (inactive). Also, the EC50 in experiment [9] is > 53 µM (inactive).

The values are drawn from ChEMBL document CHEMBL1201862, “PubChem BioAssay data set” (2004).
